Marks after values point to notes of the source that are not given here.
How the values were obtained:
[1] = test system: M1 (rhabdomyosarcoma); assay: Reimplantation of M1 tumor on Day 20 into tumor-free mice treated with PDT (verteporfin 1.0 mg/kg i.v. + light) with or without DETOX B-SE; assay type: in vivo; conditions: for Survival (tumour less than 1 cm long, not euthanized) / Tumor-take Rate: reimplanted Day 20
Description: The thirty mice in treatment group 7 were implanted at the same time as those reimplanted on Groups 1-6 to provide a control for the rate of tumor-take. Ten mice were implanted on each of three separate batches of 10 mice to match the days of reimplantation of 1-6.
High dose PDT gave approximately 60% fewer tumors (n=9), and this percentage was not changed by the addition of high dose immunoadjuvant (n=5). The lower dose of immunoadjuvant combined with high dose PDT gave more protection against rechallenge (20% take rate, n=6).

[2] = test system: B16-F1 melanoma; assay: B16-F1 melanoma: PDT (verteporfin 1.0 mg/kg i.v., 100 J/cm^2) with or without intratumoral TITERMAX, then experimental pulmonary metastases; assay type: in vivo, C57BL/6 mice
Method: Male, C57BL/6 mice were obtained from Charles River Canada (Montreal, QC) at 6 to 8 weeks of age. The B 16-F0 and B 16-F1 melanoma cell lines were obtained from the […] (ATC™) (Manassas, Va.) and grown as cell cultures in Dulbecco's Modified Eagle Medium (DMEM) (Gibco) supplemented with 10% fetal bovine serum (Sigma). The cells adhered to tissue culture plates, were removed for passage with 0.25% trypsin with 1.0 mM ethylenediaminetetraacetic acid (EDTA) (Gibco), and were cryo-preserved in liquid nitrogen in DMEM plus 40% FBS and 10% DMSO. Mice were injected with 5×10^5 tumor cells in a total volume of 50 μL subcutaneously into the shaved, right flank. The tumor size was monitored daily by measuring the diameter with vernier calipers and were treated when the tumors reached approximately 5 mm in diameter. […] Subsequently the B16-F1 cell line was used for all experiments.
PDT treatment of mice bearing the B16-F1 tumor was performed as previously described for the M1 rhabdomyosarcoma mouse tumor (Richter et al., 1987; Richter et al., 1988; Richter et al., 1991). Each mouse was weighed, warmed under infrared light for less than 5 min to dilate the blood vessels, restrained, and injected intravenously (tail vein) with verteporfin at a concentration of 1.0 mg/kg body weight using a 28G needle. […] Following treatment, animals were monitored daily for tumor response. […]

[3] = Optimal PDT (75 J/cm^2), n = 9, day 23 post-PDT
[4] = Optimal PDT (75 J/cm^2), n = 9, day 26 post-PDT
[5] = Optimal PDT (75 J/cm^2), n = 9, day 29 post-PDT
[6] = Optimal PDT (75 J/cm^2), n = 9, day 32 post-PDT
[7] = Optimal PDT (75 J/cm^2), n = 9, day 35 post-PDT
[8] = Optimal PDT (75 J/cm^2), n = 9, day 38 post-PDT
[9] = Optimal PDT (75 J/cm^2), n = 9, day 41 post-PDT
[10] = Optimal PDT (75 J/cm^2), n = 9, day 44 post-PDT
[11] = Optimal PDT (75 J/cm^2), n = 9, day 47 post-PDT
[12] = Optimal PDT (75 J/cm^2), n = 9, day 50 post-PDT
[13] = Sub-optimal PDT (25 J/cm^2), n = 7, day 23 post-PDT
[14] = Sub-optimal PDT (25 J/cm^2), n = 7, day 26 post-PDT
[15] = Sub-optimal PDT (25 J/cm^2), n = 7, day 29 post-PDT
[16] = Sub-optimal PDT (25 J/cm^2), n = 7, day 32 post-PDT
[17] = Sub-optimal PDT (25 J/cm^2), n = 7, day 35 post-PDT
[18] = Sub-optimal PDT (25 J/cm^2), n = 7, day 38 post-PDT
[19] = Sub-optimal PDT (25 J/cm^2), n = 7, day 41 post-PDT
[20] = Sub-optimal PDT (25 J/cm^2), n = 7, day 44 post-PDT
[21] = Sub-optimal PDT (25 J/cm^2), n = 7, day 47 post-PDT
[22] = Sub-optimal PDT (25 J/cm^2), n = 7, day 50 post-PDT

In the case of “benzoporphyrin derivative monoacid ring A [verteporfin]”, the “fewer tumors upon reimplantation than in untreated naïve mice” value ([1]; High dose PDT (75 J/cm^2), n=9) is reported as “approximately 60%”, the “protection against rechallenge relative to controls” value ([1]; Low dose PDT alone (25 J/cm^2), superior to low dose PDT combined with low-dose adjuvant) is reported as “substantial protection” and the “Survival (tumour less than 1 cm long, not euthanized)” value [1, 3] is reported as 100%. The “Tumor-take Rate” value [1, 3] was 0%, the “Survival (tumour less than 1 cm long, not euthanized)” value [1, 4] was 100% and the “Tumor-take Rate” value [1, 4] was 44^d %. For the same substance, the “Survival (tumour less than 1 cm long, not euthanized)” value [1, 5] was 100%, the “Tumor-take Rate” value [1, 5] was 44^c % and the “Survival (tumour less than 1 cm long, not euthanized)” value [1, 6] was 100%. The “Tumor-take Rate” value [1, 6] was 44^c %, the “Survival (tumour less than 1 cm long, not euthanized)” value [1, 7] was 89^c % and the “Tumor-take Rate” value [1, 7] was 44^c %. For the same substance, the “Survival (tumour less than 1 cm long, not euthanized)” value [1, 8] was 89%, the “Tumor-take Rate” value [1, 8] was 44^c % and the “Survival (tumour less than 1 cm long, not euthanized)” value [1, 9] was 89%. The “Tumor-take Rate” value [1, 9] was 44^c %, the “Survival (tumour less than 1 cm long, not euthanized)” value [1, 10] was 78% and the “Tumor-take Rate” value [1, 10] was 44^c %. For the same substance, the “Survival (tumour less than 1 cm long, not euthanized)” value [1, 11] was 56%, the “Tumor-take Rate” value [1, 11] was 44^c % and the “Survival (tumour less than 1 cm long, not euthanized)” value [1, 12] was 56%. For the same substance, the “Tumor-take Rate” value [1, 12] was 44^c %, the “Survival (tumour less than 1 cm long, not euthanized)” value [1, 13] was 100% and the “Tumor-take Rate” value [1, 13] was 0%. For the same substance, the “Survival (tumour less than 1 cm long, not euthanized)” value [1, 14] was 100%, the “Tumor-take Rate” value [1, 14] was 43% and the “Survival (tumour less than 1 cm long, not euthanized)” value [1, 15] was 100%. For the same substance, the “Tumor-take Rate” value [1, 15] was 43%, the “Survival (tumour less than 1 cm long, not euthanized)” value [1, 16] was 100% and the “Tumor-take Rate” value [1, 16] was 43%. For the same substance, the “Survival (tumour less than 1 cm long, not euthanized)” value [1, 17] was 100%, the “Tumor-take Rate” value [1, 17] was 43% and the “Survival (tumour less than 1 cm long, not euthanized)” value [1, 18] was 100%. For the same substance, the “Tumor-take Rate” value [1, 18] was 43%, the “Survival (tumour less than 1 cm long, not euthanized)” value [1, 19] was 100% and the “Tumor-take Rate” value [1, 19] was 29%. For the same substance, the “Survival (tumour less than 1 cm long, not euthanized)” value [1, 20] was 86%, the “Tumor-take Rate” value [1, 20] was 29% and the “Survival (tumour less than 1 cm long, not euthanized)” value [1, 21] was 86%. The “Tumor-take Rate” value [1, 21] was 29%, the “Survival (tumour less than 1 cm long, not euthanized)” value [1, 22] was 86% and the “Tumor-take Rate” value [1, 22] was 29%. The “animals that required repeated treatment to complete the tumor cure” value ([2]; of five animals per group, subcutaneous B16-F1 tumor) was 3 and the lung colonies ([2]; one of the 5 animals treated with PDT alone, 14 days after i.v. tumor cells) was 6.

Source: US7850981B2, “Immuno-adjuvant PDT treatment of metastatic tumors” (QLT, Inc., priority 1999, dated 2010)
